Source: publication PMC11025614 (Pharmacology Research & Perspectives, 2024)

Assays:
[1] = oral midazolam with fluconazole; cited from earlier work
[2] = Therapeutic drug monitoring of sirolimus trough concentration; type: in vivo, human
PopPK modeling = type: in vivo, human; details: for Vd: female, human, blood, oral
[3] = cited from earlier work

| SMILES | increase of AUC [1] [%] | increase of C max [1] [%] | sirolimus C min ([2]; 4.5 mg twice daily with fluconazole 400 mg/day) [ng/mL] | sirolimus C min ([2]; 9 mg daily with oral fluconazole 400 mg once daily, day 3 after initiation) [ng/mL] | sirolimus C min ([2]; after 1 week of 9 mg/day (assumed steady-state), no fluconazole) [ng/mL] | sirolimus concentrations ([2]; afterward, during fluconazole, for more than 4 weeks) [ng/mL] | mean sirolimus C min ([2]; maintenance dose 9 mg sirolimus/day, before fluconazole) [ng/mL] | CL1 (apparent oral clearance, clearance from central compartment) (PopPK modeling; before fluconazole) [L/h] | CL2 (clearance between central and peripheral compartments) (PopPK modeling; before fluconazole) [L/h] | V 2 (volume of distribution of peripheral compartment) (PopPK modeling; before fluconazole) [L] | CL1 (apparent oral clearance, clearance from central compartment) (PopPK modeling; during fluconazole) [L/h] | CL2 (clearance between central and peripheral compartments) (PopPK modeling; during fluconazole) [L/h] | V 2 (volume of distribution of peripheral compartment) (PopPK modeling; during fluconazole) [L] | Vd (PopPK modeling) [L] | Vd (PopPK modeling; 5 mg/day) [L] | variation in apparent oral clearance between patients ([3]; ciclosporin and prednisone coadministered) [fold] | apparent oral sirolimus clearance, population mean ([3]; estimated by Wu and coworkers) [L/h] |
| --- | --- | --- | --- | --- | --- | --- | --- | --- | --- | --- | --- | --- | --- | --- | --- | --- | --- |
| Cc1ncc2n1-c1ccc(Cl)cc1C(c1ccccc1F)=NC2 [midazolam] | 270 | 130 | – | – | – | – | – | – | – | – | – | – | – | – | – | – | – |
| CO[C@H]1C[C@@H]2CC[C@@H](C)[C@@](O)(O2)C(=O)C(=O)N2CCCC[C@H]2C(=O)O[C@H]([C@H](C)C[C@@H]2CC[C@@H](O)[C@H](OC)C2)CC(=O)[C@H](C)/C=C(\C)[C@@H](O)[C@@H](OC)C(=O)[C@H](C)C[C@H](C)/C=C/C=C/C=C/1C [sirolimus] | – | – | 8.2 | 4.7 | 2.9 to 4.2 | 3.1 to 9.5 | 3.5 | 30.7 | 253 | 305 | 14.1 | 8.56 | 361 | 81.3 | 33.7 | 4.5 | 12.9 |
